Values quoted from earlier work in US20130317456A1, “Transdermal Delivery Systems” (Durect Corporation, priority 2006, published 2013).

Conditions: octanol/water partition coefficient

Row | log P | Structure (SMILES)
1 | around 1.95 | Cc1cccc(C)c1NC(=O)C1CCCCN1C (centres unmarked) [Mepivacaine]
2 | around 2.9 | CCCN1CCCC[C@H]1C(=O)Nc1c(C)cccc1C [Ropivacaine]
